Laboratory results: patent US10081624B2, “Heterocyclic compound” (Takeda Pharmaceutical Company Limited, priority 2014, dated 2018)

Key:
HDAC1 enzyme = target: T1, HDAC1 enzyme (Homo sapiens, UniProt Q13547); assay: HDAC1 enzyme inhibitory assay (HDAC-Glo I/II Assay kit); assay type: biochemical; details: 1 μM test compound; for inhibition at 1 µM: read-out: HDAC1 inhibitory rate (%) (1 μM)
T1 construct: prepared by transducing full length HDAC1 and HDAC6 genes into Sf-9 insect cells; GST; purchased SignalChem; host or cells: Sf-9 insect cells
Method in brief: (§1)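 Luminescent HDAC-Glo I/II read-out after 20 min room-temperature reaction with substrate-developer, following a 60 min room-temperature enzyme–compound preincubation. Enzymes: full-length HDAC1 or HDAC6 from Sf-9 cells, GST-purified; buffer pH 7.5 Tris with NaCl, glutathione, 0.01% Tween-20. No-enzyme wells defined 100% inhibition.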

HDAC6 enzyme = target: T2, HDAC6 enzyme (Homo sapiens, UniProt Q9UBN7); assay: HDAC6 enzyme inhibitory assay (HDAC-Glo I/II Assay kit); assay type: biochemical; details: 1 μM test compound; for inhibition at 1 µM: read-out: HDAC6 inhibitory rate (%) (1 μM)
T2 construct: prepared by transducing full length HDAC1 and HDAC6 genes into Sf-9 insect cells; GST; purchased SignalChem; host or cells: Sf-9 insect cells
T2 sequence (Q9UBN7 1-1215): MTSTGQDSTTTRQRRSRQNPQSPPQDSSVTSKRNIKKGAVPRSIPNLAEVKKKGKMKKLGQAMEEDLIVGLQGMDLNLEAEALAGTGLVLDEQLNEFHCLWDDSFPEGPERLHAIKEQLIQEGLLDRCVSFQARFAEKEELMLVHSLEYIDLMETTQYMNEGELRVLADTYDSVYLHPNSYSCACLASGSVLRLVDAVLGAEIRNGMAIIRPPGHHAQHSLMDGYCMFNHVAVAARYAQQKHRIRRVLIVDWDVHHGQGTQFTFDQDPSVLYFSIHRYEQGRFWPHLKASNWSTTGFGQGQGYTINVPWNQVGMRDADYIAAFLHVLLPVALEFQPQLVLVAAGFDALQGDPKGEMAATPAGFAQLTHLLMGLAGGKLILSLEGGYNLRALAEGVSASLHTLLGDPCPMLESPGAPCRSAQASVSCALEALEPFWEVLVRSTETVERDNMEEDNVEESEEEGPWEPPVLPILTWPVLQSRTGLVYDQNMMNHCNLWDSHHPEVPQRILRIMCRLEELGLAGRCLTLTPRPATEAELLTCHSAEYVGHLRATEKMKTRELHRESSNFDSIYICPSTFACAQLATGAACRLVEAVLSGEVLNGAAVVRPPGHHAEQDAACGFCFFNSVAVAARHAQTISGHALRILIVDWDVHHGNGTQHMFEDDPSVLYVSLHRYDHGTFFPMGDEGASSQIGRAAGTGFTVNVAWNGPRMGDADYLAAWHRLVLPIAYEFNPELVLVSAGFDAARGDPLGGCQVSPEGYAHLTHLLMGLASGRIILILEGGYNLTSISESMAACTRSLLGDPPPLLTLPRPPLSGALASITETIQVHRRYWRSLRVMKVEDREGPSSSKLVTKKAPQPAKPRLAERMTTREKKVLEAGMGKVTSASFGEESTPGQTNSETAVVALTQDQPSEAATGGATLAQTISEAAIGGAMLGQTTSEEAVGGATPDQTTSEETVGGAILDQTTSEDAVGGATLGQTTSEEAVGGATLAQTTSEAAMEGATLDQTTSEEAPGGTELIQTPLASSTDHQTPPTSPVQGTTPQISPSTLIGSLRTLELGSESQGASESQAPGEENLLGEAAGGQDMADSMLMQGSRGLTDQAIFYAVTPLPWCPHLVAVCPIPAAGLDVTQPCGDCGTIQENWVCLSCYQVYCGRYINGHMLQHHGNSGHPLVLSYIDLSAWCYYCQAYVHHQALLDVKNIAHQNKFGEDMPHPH
Method in brief: as §1

T1 sequence (Q13547 whole entry): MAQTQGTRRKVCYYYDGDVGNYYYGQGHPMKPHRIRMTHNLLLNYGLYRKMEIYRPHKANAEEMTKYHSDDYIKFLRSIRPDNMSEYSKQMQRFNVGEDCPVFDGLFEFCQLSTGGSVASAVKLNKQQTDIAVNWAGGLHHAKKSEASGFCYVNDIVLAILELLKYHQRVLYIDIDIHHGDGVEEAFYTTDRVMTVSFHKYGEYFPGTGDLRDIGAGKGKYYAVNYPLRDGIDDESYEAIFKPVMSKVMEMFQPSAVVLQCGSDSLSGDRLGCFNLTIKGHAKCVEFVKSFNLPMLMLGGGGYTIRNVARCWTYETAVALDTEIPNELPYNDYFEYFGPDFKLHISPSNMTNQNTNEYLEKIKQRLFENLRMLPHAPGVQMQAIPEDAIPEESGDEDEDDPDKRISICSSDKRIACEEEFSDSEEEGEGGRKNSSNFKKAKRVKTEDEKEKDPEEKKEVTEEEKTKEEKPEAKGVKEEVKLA

O=C(NCC1COCCN1C(=O)C(F)(F)c1ccccc1)c1ccc(-c2noc(C(F)(F)F)n2)cc1 (stereo in doubt) [Example 96, N-(((3S)-4-(difluoro(phenyl)acetyl)morpholin-3-yl)methyl)-4-(5-(trifluoromethyl)-1,2,4-oxadiazol-3-yl)benzamide]
inhibition at 1 µM (HDAC1 enzyme): 40% | inhibition at 1 µM (HDAC6 enzyme): 98%

N#Cc1cccc(C(=O)N2CCOC[C@@H]2CNC(=O)c2ccc(-c3noc(C(F)(F)F)n3)cc2)c1 [Example 44, N-(((3S)-4-(3-cyanobenzoyl)morpholin-3-yl)methyl)-4-(5-(trifluoromethyl)-1,2,4-oxadiazol-3-yl)benzamide]
inhibition at 1 µM (HDAC1 enzyme): 16% | HDAC6 inhibitory rate (%) (1 μM) (HDAC6 enzyme): 99%

O=C(NC[C@H]1COCCN1C(=O)N1C2CCC1COC2)c1ccc(-c2noc(C(F)(F)F)n2)cc1 [Example 109, N-(((3S)-4-(3-oxa-8-azabicyclo[3.2.1]oct-8-ylcarbonyl)morpholin-3-yl)methyl)-4-(5-(trifluoromethyl)-1,2,4-oxadiazol-3-yl)benzamide]
inhibition at 1 µM (HDAC1 enzyme): 10% | inhibition at 1 µM (HDAC6 enzyme): 99%

O=C(NCC1COCCN1C(=O)c1cccc(F)c1)c1ccc(-c2noc(C(F)(F)F)n2)cc1 (centres unmarked) [Example 4, N-((4-(3-fluorobenzoyl)morpholin-3-yl)methyl)-4-(5-(trifluoromethyl)-1,2,4-oxadiazol-3-yl)benzamide]
inhibition at 1 µM (HDAC1 enzyme): 18% | inhibition at 1 µM (HDAC6 enzyme): 100%

O=C(NC[C@H]1COCCN1C(=O)c1cc(F)cc(F)c1)c1ccc(-c2noc(C(F)(F)F)n2)cc1 [Example 39, N-(((3S)-4-(3,5-difluorobenzoyl)morpholin-3-yl)methyl)-4-(5-(trifluoromethyl)-1,2,4-oxadiazol-3-yl)benzamide]
inhibition at 1 µM (HDAC1 enzyme): 18% | inhibition at 1 µM (HDAC6 enzyme): 100%

O=C(NC[C@@H]1COCCN1C(=O)c1cc2ccccc2o1)c1ccc(-c2noc(C(F)(F)F)n2)cc1 [Example 125, N-(((3R)-4-(1-benzofuran-2-ylcarbonyl)morpholin-3-yl)methyl)-4-(5-(trifluoromethyl)-1,2,4-oxadiazol-3-yl)benzamide]
inhibition at 1 µM (HDAC1 enzyme): 19% | inhibition at 1 µM (HDAC6 enzyme): 100%

Cc1cccc(C(=O)N2CCOCC2CNC(=O)c2ccc(-c3noc(C(F)(F)F)n3)cc2)c1 (centres unmarked) [Example 10, N-((4-(3-methylbenzoyl)morpholin-3-yl)methyl)-4-(5-(trifluoromethyl)-1,2,4-oxadiazol-3-yl)benzamide]
inhibition at 1 µM (HDAC1 enzyme): 18% | inhibition at 1 µM (HDAC6 enzyme): 104%

O=C(NC[C@@H]1COCCN1C(=O)N1CCCCC1)c1ccc(-c2noc(C(F)(F)F)n2)cc1 [Example 158, N-(((3R)-4-(piperidin-1-ylcarbonyl)morpholin-3-yl)methyl)-4-(5-(trifluoromethyl)-1,2,4-oxadiazol-3-yl)benzamide]
inhibition at 1 µM (HDAC1 enzyme): 12% | inhibition at 1 µM (HDAC6 enzyme): 97%

CCn1nccc1C(=O)N1CCOCC1CNC(=O)c1ccc(-c2noc(C(F)(F)F)n2)cc1 (stereo in doubt) [Example 106, N-(((3S)-4-((1-ethyl-1H-pyrazol-5-yl)carbonyl)morpholin-3-yl)methyl)-4-(5-(trifluoromethyl)-1,2,4-oxadiazol-3-yl)benzamide]
inhibition at 1 µM (HDAC1 enzyme): 51% | inhibition at 1 µM (HDAC6 enzyme): 98%

O=C(NCC1COCCN1C(=O)c1cc(Cl)cc(Cl)c1)c1ccc(-c2noc(C(F)(F)F)n2)s1 (centres unmarked) [Example 211, N-((4-(3,5-dichlorobenzoyl)morpholin-3-yl)methyl)-5-(5-(trifluoromethyl)-1,2,4-oxadiazol-3-yl)thiophene-2-carboxamide]
inhibition at 1 µM (HDAC1 enzyme): 15% | inhibition at 1 µM (HDAC6 enzyme): 96%

O=C(NC[C@@H]1COCCN1C(=O)C1CCOCC1)c1ccc(-c2noc(C(F)(F)F)n2)cc1 [Example 153, N-(((3R)-4-(tetrahydro-2H-pyran-4-ylcarbonyl)morpholin-3-yl)methyl)-4-(5-(trifluoromethyl)-1,2,4-oxadiazol-3-yl)benzamide]
inhibition at 1 µM (HDAC1 enzyme): 3% | inhibition at 1 µM (HDAC6 enzyme): 92%

Cc1nonc1C(=O)N1CCOC[C@H]1CNC(=O)c1ccc(-c2noc(C(F)(F)F)n2)s1 [Example 264, N-(((3R)-4-((4-methyl-1,2,5-oxadiazol-3-yl)carbonyl)morpholin-3-yl)methyl)-5-(5-(trifluoromethyl)-1,2,4-oxadiazol-3-yl)thiophene-2-carboxamide]
inhibition at 1 µM (HDAC1 enzyme): 48% | inhibition at 1 µM (HDAC6 enzyme): 99%

Cc1ccccc1C(=O)N1CCOCC1CNC(=O)c1ccc(-c2noc(C(F)(F)F)n2)cc1 (centres unmarked) [Example 9, N-((4-(2-methylbenzoyl)morpholin-3-yl)methyl)-4-(5-(trifluoromethyl)-1,2,4-oxadiazol-3-yl)benzamide]
inhibition at 1 µM (HDAC1 enzyme): 21% | inhibition at 1 µM (HDAC6 enzyme): 99%

Cn1nc2ccccc2c1C(=O)N1CCOC[C@@H]1CNC(=O)c1ccc(-c2noc(C(F)(F)F)n2)cn1 [Example 184, N-(((3S)-4-((2-methyl-2H-indazol-3-yl)carbonyl)morpholin-3-yl)methyl)-5-(5-(trifluoromethyl)-1,2,4-oxadiazol-3-yl)pyridine-2-carboxamide]
inhibition at 1 µM (HDAC1 enzyme): 77% | inhibition at 1 µM (HDAC6 enzyme): 99%

O=C(NCC1COCCN1C(=O)c1ccccc1)c1ccc(-c2noc(C(F)(F)F)n2)s1 (single isomer, unassigned) [Example 258, (R or S)-N-((4-benzoylmorpholin-3-yl)methyl)-5-(5-(trifluoromethyl)-1,2,4-oxadiazol-3-yl)thiophene-2-carboxamide]
HDAC1 inhibitory rate (%) (1 μM) (HDAC1 enzyme; 1 µM): 31% | HDAC6 inhibitory rate (%) (1 μM) (HDAC6 enzyme): 96%

O=C(NCC1COCCN1C(=O)Cc1cccs1)c1ccc(-c2noc(C(F)(F)F)n2)cc1 (centres unmarked) [Example 21, N-((4-(2-thienylacetyl)morpholin-3-yl)methyl)-4-(5-(trifluoromethyl)-1,2,4-oxadiazol-3-yl)benzamide]
inhibition at 1 µM (HDAC1 enzyme): 28% | inhibition at 1 µM (HDAC6 enzyme): 97%

O=C(NC[C@H]1COCCN1C(=O)c1ccccc1)c1ccc(-c2noc(C(F)(F)F)n2)cc1 [Example 36, N-(((3S)-4-benzoylmorpholin-3-yl)methyl)-4-(5-(trifluoromethyl)-1,2,4-oxadiazol-3-yl)benzamide]
HDAC1 inhibitory rate (%) (1 μM) (HDAC1 enzyme): 21% | HDAC6 inhibitory rate (%) (1 μM) (HDAC6 enzyme): 105%

O=C(NC[C@H]1COCCN1C(=O)N1CC[C@@H](O)C1)c1ccc(-c2noc(C(F)(F)F)n2)cc1 [Example 275, N-(((3S)-4-(((3R)-3-hydroxypyrrolidin-1-yl)carbonyl)morpholin-3-yl)methyl)-4-(5-(trifluoromethyl)-1,2,4-oxadiazol-3-yl)benzamide]
inhibition at 1 µM (HDAC1 enzyme): 5% | inhibition at 1 µM (HDAC6 enzyme): 85%

O=C(NC[C@H]1COCCN1C(=O)N1CCCC1CCO)c1ccc(-c2noc(C(F)(F)F)n2)cc1 (stereo partly drawn) [Example 306, N-(((3S)-4-((2-(2-hydroxyethyl)pyrrolidin-1-yl)carbonyl)morpholin-3-yl)methyl)-4-(5-(trifluoromethyl)-1,2,4-oxadiazol-3-yl)benzamide]
HDAC1 inhibitory rate (%) (1 μM) (HDAC1 enzyme): 5% | HDAC6 inhibitory rate (%) (1 μM) (HDAC6 enzyme): 88%

O=C(NCC1COCCN1C(=O)c1cccc(C(F)(F)F)c1)c1ccc(-c2noc(C(F)(F)F)n2)cc1 (centres unmarked) [Example 27, N-((4-(3-(trifluoromethyl)benzoyl)morpholin-3-yl)methyl)-4-(5-(trifluoromethyl)-1,2,4-oxadiazol-3-yl)benzamide]
inhibition at 1 µM (HDAC1 enzyme): 14% | inhibition at 1 µM (HDAC6 enzyme): 99%

O=C(NCC1COCCN1C(=O)c1ccccc1)c1ccc(-c2noc(C(F)(F)F)n2)s1 (single isomer, unassigned) [Example 257, (R or S)-N-((4-benzoylmorpholin-3-yl)methyl)-5-(5-(trifluoromethyl)-1,2,4-oxadiazol-3-yl)thiophene-2-carboxamide]
inhibition at 1 µM (HDAC1 enzyme): 23% | inhibition at 1 µM (HDAC6 enzyme): 97%

O=C(NCC1COCCN1C(=O)c1ccccc1F)c1ccc(-c2noc(C(F)(F)F)n2)cc1 (centres unmarked) [Example 3]
inhibition at 1 µM (HDAC1 enzyme): 19% | inhibition at 1 µM (HDAC6 enzyme): 99%
